How the values were obtained:
[1] = molecular target: ABL1 T315I (Homo sapiens, UniProt P00519, T315I); experiment: SelectScreen kinase profiling, ZLYTE; assay type: biochemical
[2] = molecular target: ABL1 Y253F (Homo sapiens, UniProt P00519, Y253F); experiment: SelectScreen kinase profiling, ZLYTE; assay type: biochemical
[3] = molecular target: AKT3 (PKB gamma) (Homo sapiens, UniProt Q9Y243); experiment: SelectScreen kinase profiling, ZLYTE; assay type: biochemical
[4] = molecular target: ALK T1151_L1152insT (Homo sapiens, UniProt Q9UM73, INS1151T); experiment: SelectScreen kinase profiling, LanthaScreen binding
[5] = molecular target: AMPK (A1/B1/G2) (Homo sapiens, UniProt Q13131); experiment: as above
[6] = molecular target: AMPK A1/B1/G1 (Homo sapiens, UniProt Q13131); experiment: SelectScreen kinase profiling, ZLYTE; assay type: biochemical; conditions: AMPK A1/B1/G1, 10 µM
[7] = molecular target: BMPR2 (Homo sapiens, UniProt Q13873); experiment: SelectScreen kinase profiling, LanthaScreen binding; conditions: BMPR2, 10 µM
[8] = molecular target: BRAF V599E (Homo sapiens, UniProt P15056, V600E); experiment: as above
[9] = molecular target: CAMK2G (CaMKII gamma) (Homo sapiens, UniProt Q13555); experiment: as above
[10] = molecular target: CDK1/cyclin B (Homo sapiens, UniProt P06493); experiment: SelectScreen kinase profiling, ZLYTE; assay type: biochemical
[11] = molecular target: CDK3/cyclin E1 (Homo sapiens, UniProt Q00526); experiment: SelectScreen kinase profiling, LanthaScreen binding; conditions: CDK3/cyclin E1, 10 µM
[12] = molecular target: CLK1 (Homo sapiens, UniProt P49759); experiment: SelectScreen kinase profiling, ZLYTE; assay type: biochemical; conditions: CLK1, 10 µM
[13] = molecular target: CSNK1A1 (CK1 alpha 1) (Homo sapiens, UniProt P48729); experiment: SelectScreen kinase profiling, ZLYTE; assay type: biochemical
[14] = molecular target: DYRK3 (Homo sapiens, UniProt O43781); experiment: SelectScreen kinase profiling, ZLYTE; assay type: biochemical; conditions: DYRK3, 10 µM
[15] = molecular target: P450 2J2 (Homo sapiens, UniProt P51589)
[16] = molecular target: EPHA3 (Homo sapiens, UniProt P29320); experiment: SelectScreen kinase profiling, LanthaScreen binding; conditions: EPHA3, 10 µM
[17] = molecular target: FRAP1 (mTOR) (Homo sapiens, UniProt P42345); experiment: SelectScreen kinase profiling, ZLYTE; assay type: biochemical
[18] = molecular target: GAK (Homo sapiens, UniProt O14976); experiment: SelectScreen kinase profiling, LanthaScreen binding
[19] = molecular target: HCK (Homo sapiens, UniProt P08631); experiment: SelectScreen kinase profiling, ZLYTE; assay type: biochemical
[20] = molecular target: IKBKB (IKK beta) (Homo sapiens, UniProt O14920); experiment: SelectScreen kinase profiling, ZLYTE; assay type: biochemical
[21] = molecular target: JAK2 (Homo sapiens, UniProt O60674); experiment: SelectScreen kinase profiling, ZLYTE; assay type: biochemical; conditions: JAK2, 10 µM
[22] = molecular target: LCK (Homo sapiens, UniProt P06239); experiment: SelectScreen kinase profiling, ZLYTE; assay type: biochemical
[23] = molecular target: LIMK2 (Homo sapiens, UniProt P53671); experiment: SelectScreen kinase profiling, LanthaScreen binding; conditions: LIMK2, 10 µM
[24] = molecular target: LRRK2 G2019S (Homo sapiens, UniProt Q5S007, G2019S); experiment: SelectScreen kinase profiling, Adapta; assay type: biochemical
[25] = molecular target: MAP2K5 (MEK5) (Homo sapiens, UniProt Q13163); experiment: SelectScreen kinase profiling, LanthaScreen binding
[26] = molecular target: MAP3K5 (ASK1) (Homo sapiens, UniProt Q99683); experiment: as above
[27] = molecular target: MYLK4 (Homo sapiens, UniProt Q86YV6); experiment: as above; conditions: MYLK4, 10 µM
[28] = molecular target: NEK4 (Homo sapiens, UniProt P51957); experiment: SelectScreen kinase profiling, ZLYTE; assay type: biochemical; conditions: NEK4, 10 µM
[29] = molecular target: NUAK1 (ARK5) (Homo sapiens, UniProt O60285); experiment: SelectScreen kinase profiling, Adapta; assay type: biochemical
[30] = molecular target: PDGFRA (PDGFR alpha) (Homo sapiens, UniProt P16234); experiment: SelectScreen kinase profiling, ZLYTE; assay type: biochemical
[31] = molecular target: PDGFRB (PDGFR beta) (Homo sapiens, UniProt P09619); experiment: SelectScreen kinase profiling, ZLYTE; assay type: biochemical
[32] = molecular target: PEAK1 (Homo sapiens, UniProt Q9H792); experiment: SelectScreen kinase profiling, ZLYTE; assay type: biochemical; conditions: PEAK1, 10 µM
[33] = molecular target: PI4K2B (PI4K2 beta) (Homo sapiens, UniProt Q8TCG2); experiment: SelectScreen kinase profiling, Adapta; assay type: biochemical
[34] = molecular target: PIM2 (Homo sapiens, UniProt Q9P1W9); experiment: SelectScreen kinase profiling, ZLYTE; assay type: biochemical; conditions: PIM2, 10 µM
[35] = molecular target: PRKX (Homo sapiens, UniProt P51817); experiment: SelectScreen kinase profiling, ZLYTE; assay type: biochemical
[36] = molecular target: RET G691S (Homo sapiens, UniProt P07949, G691S); experiment: SelectScreen kinase profiling, LanthaScreen binding
[37] = molecular target: YES1 (Homo sapiens, UniProt P07947); experiment: SelectScreen kinase profiling, ZLYTE; assay type: biochemical; conditions: YES1, 10 µM
[38] = molecular target: hERG channel (Homo sapiens, UniProt Q12809); experiment: biochemical
[39] = molecular target: P450 1A2 (Homo sapiens, UniProt P05177); experiment: SelectScreen P450 Vivid biochemical assay; conditions: 10000nM; substrate EOMCC

Sequence of AMPK A1/B1/G1 (Q13131 whole entry): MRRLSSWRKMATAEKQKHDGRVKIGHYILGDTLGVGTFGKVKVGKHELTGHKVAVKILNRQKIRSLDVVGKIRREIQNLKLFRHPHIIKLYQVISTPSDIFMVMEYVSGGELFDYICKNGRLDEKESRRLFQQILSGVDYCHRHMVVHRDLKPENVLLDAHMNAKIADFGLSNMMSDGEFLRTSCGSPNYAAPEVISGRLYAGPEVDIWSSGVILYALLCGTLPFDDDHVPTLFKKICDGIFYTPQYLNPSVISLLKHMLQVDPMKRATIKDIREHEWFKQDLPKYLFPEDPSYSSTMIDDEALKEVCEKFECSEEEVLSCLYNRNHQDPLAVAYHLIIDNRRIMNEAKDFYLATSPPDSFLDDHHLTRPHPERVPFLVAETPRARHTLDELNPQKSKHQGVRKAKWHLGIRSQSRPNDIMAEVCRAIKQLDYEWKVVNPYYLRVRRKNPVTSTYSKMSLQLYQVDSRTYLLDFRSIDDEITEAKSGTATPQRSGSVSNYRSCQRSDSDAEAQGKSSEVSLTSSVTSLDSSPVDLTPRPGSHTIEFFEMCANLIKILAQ
Sequence of AMPK A1/B1/G1 (Q9Y478 whole entry partner): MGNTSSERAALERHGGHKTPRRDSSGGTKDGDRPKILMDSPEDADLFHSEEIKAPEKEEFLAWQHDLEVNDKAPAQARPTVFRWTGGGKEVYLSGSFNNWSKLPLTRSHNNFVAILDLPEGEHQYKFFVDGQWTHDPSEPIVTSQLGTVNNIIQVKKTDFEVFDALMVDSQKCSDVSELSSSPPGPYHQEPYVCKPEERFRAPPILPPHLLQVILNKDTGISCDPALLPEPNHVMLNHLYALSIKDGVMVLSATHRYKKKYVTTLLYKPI
Sequence of AMPK A1/B1/G1 (P54619 whole entry partner): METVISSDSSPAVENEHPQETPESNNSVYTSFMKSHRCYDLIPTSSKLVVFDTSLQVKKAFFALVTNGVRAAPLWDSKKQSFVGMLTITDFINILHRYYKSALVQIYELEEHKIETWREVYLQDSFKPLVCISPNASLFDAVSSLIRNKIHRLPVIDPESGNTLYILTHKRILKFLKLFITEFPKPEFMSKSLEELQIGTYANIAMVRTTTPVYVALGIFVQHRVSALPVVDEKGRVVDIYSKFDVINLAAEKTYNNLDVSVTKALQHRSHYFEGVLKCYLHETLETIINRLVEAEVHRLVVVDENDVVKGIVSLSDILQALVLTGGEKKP
Sequence of AMPK (A1/B1/G2) (Q13131 whole entry): as the sequence (Q13131 whole entry) above
Sequence of AMPK (A1/B1/G2) (Q9Y478 whole entry partner): as the sequence (Q9Y478 whole entry partner) above
Sequence of AMPK (A1/B1/G2) (Q9UGJ0 whole entry partner): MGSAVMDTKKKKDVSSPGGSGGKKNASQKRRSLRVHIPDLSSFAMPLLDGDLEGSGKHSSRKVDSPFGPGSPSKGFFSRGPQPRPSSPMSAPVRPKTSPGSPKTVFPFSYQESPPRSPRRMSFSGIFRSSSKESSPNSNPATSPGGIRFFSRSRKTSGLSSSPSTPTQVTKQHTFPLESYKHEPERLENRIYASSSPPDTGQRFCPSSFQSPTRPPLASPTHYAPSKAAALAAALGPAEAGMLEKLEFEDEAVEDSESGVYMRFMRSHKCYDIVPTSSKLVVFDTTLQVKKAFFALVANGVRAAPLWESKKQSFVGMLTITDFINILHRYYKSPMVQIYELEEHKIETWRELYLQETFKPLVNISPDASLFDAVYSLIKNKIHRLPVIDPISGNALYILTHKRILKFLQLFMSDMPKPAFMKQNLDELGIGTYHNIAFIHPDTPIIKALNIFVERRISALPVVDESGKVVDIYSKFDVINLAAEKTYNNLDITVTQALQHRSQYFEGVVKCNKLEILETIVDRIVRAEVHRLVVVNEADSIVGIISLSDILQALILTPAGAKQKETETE
Sequence of CSNK1A1 (CK1 alpha 1) (P48729 whole entry): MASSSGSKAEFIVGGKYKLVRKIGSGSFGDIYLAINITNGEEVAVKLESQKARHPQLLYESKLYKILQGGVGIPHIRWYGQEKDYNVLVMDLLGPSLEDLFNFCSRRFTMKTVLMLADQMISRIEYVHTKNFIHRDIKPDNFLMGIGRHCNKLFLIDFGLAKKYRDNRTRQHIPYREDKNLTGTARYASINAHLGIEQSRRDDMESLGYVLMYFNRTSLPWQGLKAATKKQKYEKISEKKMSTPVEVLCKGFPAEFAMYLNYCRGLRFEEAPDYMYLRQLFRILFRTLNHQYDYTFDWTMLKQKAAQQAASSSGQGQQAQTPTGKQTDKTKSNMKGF
Sequence of MYLK4 (Q86YV6 whole entry): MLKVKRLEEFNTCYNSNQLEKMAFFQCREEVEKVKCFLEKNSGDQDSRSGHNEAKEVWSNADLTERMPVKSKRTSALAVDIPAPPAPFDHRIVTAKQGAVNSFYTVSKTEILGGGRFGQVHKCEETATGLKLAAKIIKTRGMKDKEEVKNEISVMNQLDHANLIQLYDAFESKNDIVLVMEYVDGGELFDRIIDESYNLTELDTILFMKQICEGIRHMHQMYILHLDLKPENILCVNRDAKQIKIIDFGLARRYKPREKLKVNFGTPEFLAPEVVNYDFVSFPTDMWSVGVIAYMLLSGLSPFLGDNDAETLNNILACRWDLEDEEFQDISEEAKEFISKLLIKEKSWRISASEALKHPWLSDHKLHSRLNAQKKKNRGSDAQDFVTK
Sequence of CDK1/cyclin B (P06493 whole entry): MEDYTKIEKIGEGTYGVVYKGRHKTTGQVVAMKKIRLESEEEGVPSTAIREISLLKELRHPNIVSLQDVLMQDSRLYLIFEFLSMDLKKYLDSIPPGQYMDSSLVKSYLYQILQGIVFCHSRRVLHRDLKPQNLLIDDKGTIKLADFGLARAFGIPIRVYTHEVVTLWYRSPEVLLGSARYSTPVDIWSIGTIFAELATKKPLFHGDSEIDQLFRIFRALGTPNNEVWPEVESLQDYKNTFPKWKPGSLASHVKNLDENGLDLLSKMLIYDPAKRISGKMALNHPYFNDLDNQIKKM
Sequence of CDK1/cyclin B (P14635 whole entry partner): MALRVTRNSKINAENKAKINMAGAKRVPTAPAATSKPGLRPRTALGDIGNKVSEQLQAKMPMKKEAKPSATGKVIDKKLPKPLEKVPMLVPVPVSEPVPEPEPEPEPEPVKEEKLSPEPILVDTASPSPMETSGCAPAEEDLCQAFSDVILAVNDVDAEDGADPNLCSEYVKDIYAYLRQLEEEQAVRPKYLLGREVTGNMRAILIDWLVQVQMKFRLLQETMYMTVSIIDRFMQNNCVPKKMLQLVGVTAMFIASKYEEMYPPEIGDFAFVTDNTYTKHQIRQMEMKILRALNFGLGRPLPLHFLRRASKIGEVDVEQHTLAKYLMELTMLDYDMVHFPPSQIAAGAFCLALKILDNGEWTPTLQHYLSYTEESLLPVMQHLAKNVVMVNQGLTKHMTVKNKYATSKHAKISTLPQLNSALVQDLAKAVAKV
Sequence of PEAK1 (Q9H792 whole entry): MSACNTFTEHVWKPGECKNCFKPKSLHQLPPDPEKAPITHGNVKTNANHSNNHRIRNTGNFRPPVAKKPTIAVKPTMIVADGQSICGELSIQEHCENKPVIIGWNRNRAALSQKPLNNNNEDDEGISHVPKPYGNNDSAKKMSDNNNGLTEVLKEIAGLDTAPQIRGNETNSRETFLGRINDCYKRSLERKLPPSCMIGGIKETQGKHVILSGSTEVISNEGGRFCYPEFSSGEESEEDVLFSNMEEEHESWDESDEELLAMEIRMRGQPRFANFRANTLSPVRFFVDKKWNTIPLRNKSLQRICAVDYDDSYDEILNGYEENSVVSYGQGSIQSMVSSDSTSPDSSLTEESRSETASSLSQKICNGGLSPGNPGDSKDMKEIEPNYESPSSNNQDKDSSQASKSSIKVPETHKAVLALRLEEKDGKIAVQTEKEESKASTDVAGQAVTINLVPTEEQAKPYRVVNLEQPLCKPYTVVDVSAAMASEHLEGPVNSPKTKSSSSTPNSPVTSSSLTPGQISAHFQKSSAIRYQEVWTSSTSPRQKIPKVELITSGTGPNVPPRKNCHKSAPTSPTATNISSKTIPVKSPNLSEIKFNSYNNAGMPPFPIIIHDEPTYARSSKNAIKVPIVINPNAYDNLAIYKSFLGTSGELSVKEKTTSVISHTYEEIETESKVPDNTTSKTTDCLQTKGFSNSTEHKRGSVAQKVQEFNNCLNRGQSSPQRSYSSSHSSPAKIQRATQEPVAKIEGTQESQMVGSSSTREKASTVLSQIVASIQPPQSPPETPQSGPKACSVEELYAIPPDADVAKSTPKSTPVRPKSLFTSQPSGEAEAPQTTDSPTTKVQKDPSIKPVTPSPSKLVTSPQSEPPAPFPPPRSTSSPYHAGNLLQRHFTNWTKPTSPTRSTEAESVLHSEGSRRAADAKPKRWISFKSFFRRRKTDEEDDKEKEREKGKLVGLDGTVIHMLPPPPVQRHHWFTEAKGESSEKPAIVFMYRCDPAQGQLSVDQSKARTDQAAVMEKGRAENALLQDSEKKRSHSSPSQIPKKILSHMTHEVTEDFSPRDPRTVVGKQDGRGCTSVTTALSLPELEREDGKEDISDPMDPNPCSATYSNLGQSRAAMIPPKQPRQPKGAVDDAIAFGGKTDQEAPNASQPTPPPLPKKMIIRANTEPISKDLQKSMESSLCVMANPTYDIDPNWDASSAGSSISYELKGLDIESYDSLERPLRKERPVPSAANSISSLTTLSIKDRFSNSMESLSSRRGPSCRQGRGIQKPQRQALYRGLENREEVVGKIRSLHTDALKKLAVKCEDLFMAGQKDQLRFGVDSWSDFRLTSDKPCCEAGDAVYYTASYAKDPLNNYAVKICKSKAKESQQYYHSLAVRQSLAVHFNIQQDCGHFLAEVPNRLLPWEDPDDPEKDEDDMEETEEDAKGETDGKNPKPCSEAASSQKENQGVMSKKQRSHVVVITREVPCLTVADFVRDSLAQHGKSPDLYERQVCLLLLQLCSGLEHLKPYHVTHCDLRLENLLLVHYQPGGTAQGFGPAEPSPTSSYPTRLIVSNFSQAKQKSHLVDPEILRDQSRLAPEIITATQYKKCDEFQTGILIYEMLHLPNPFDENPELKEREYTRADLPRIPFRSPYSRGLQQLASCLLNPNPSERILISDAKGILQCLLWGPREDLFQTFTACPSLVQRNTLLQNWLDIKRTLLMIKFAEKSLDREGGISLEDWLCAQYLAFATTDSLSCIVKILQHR

Q: Which results are given for `O=C(c1ccc(/C=C/c2n[nH]c3ccccc23)cc1)N1CCNCC1` [KW-2449]?
A: inhibition at 10 µM [1]: 101%; inhibition at 10 µM [2]: 100%; inhibition at 10 µM [3]: 11%; inhibition at 10 µM [4]: 26%; inhibition at 10 µM [5]: 85%; inhibition at 10 µM [6]: 97%; inhibition at 10 µM [7]: 113%; inhibition at 10 µM [8]: 6%; inhibition at 10 µM [9]: -110%; inhibition at 10 µM [10]: 88%; inhibition at 10 µM [11]: 48%; inhibition at 10 µM [12]: 99%; inhibition at 10 µM [13]: 33%; inhibition at 10 µM [14]: 86%; IC50 [15]: 249 nM; inhibition at 10 µM [16]: 61%; inhibition at 10 µM [17]: 9%; inhibition at 10 µM [18]: 67%; inhibition at 10 µM [19]: 90%; inhibition at 10 µM [20]: 66%; inhibition at 10 µM [21]: 98%; inhibition at 10 µM [22]: 97%; inhibition at 10 µM [23]: 24%; inhibition at 10 µM [24]: 100%; inhibition at 10 µM [25]: 84%; inhibition at 10 µM [26]: 63%; inhibition at 10 µM [27]: 71%; inhibition at 10 µM [28]: 96%; inhibition at 10 µM [29]: 100%; inhibition at 10 µM [30]: 91%; inhibition at 10 µM [31]: 76%; inhibition at 10 µM [32]: 91%; inhibition at 10 µM [33]: -1%; inhibition at 10 µM [34]: 8%; inhibition at 10 µM [35]: 96%; inhibition at 10 µM [36]: -30%; inhibition at 10 µM [37]: 95%; IC50 [38]: > 10000 nM; % Inhibition 1A2 EOMCC [39]: -3%

From publication PMC6540285, “Evaluation of Protein Kinase Inhibitors with PLK4 Cross-Over Potential in a Pre-Clinical Model of Cancer” (International Journal of Molecular Sciences, 2019)
